Entries after “also recorded” stand apart in the source; their conditions may differ. Ends that are not written are not given here.

In experiment [1] the test system is IFN-γ-producing specific cells (lymph node cells). The experiment is described as follows: Induction of peptide-specific T cell responses in vivo, IFN-γ ELISpot of lymph node cells after vaccination with TRP-2 peptide. Further details: species or system mice (C57BL/6). The procedure: For testing the ability of the (synthetic antimicrobial) peptide KLKLLLLLKLK (SEQ ID NO: 1) to enhance the induction of peptide-specific T cell responses in vivo, groups of 4 mice (C57BL/6, female, 8 weeks of age, H-2b) were injected subcutaneously into the flank 3 times (days 0, 28, and 56), with an antigenic melanoma peptide (100 μg) derived from TRP-2 (mouse tyrosinase related protein-2) alone or in combination with either poly-Larginine or the (synthetic antimicrobial) peptide KLKLLL. LKLK (SEQ ID NO: 1) as “carrier peptide”. The amounts of the (synthetic antimicrobial) peptide KLKLLLLLKLK (SEQ ID NO: 1) used represent four different amounts at concentrations representing the equal amount (100 μg) of poly-L-arginine in terms of μg, the equal (168 μg), the double (336 μg) and the triple (504 μg) amount of poly-L-arginine in terms of positive charges. The groups of mice were injected as follows (amounts indicated/per mouse). • (1) 100 μg peptide • (2) 100 μg peptide+100 μg poly-L-arginine (pR 60) • (3) 100 μg peptide+100 μg KLKLLLLLKLK (SEQ ID NO: 1) • (4) 100 μg peptide+168 μg KLKLLLLLKLK (SEQ ID NO: 1) • (5) 100 μg peptide+336 μg KLKLLLLLKLK (SEQ ID NO: 1) • (6) 100 μg peptide+504 μg KLKLLLLLKLK (SEQ ID NO: 1) […]

The test system of experiment [2] is P388D1 cells (murine monocyte-macrophage antigen presenting cell line). In words: TRANSloading of murine macrophages: uptake of fluorescein-tagged antigenic peptide with carrier peptide, flow cytometry. Format: cell-based. To be noted: Example 1, FIG. 1; 2 μg antigenic peptide; carrier at 101.7, 50.9 and 5.09 nmol positive charges; 1 h at 37° C. The source says:
To test if the (synthetic antimicrobial) peptide KLKLLLLLKLK (SEQ ID NO: 1) is able to function as “carrier-peptide” for antigens, to TRANSload APCs in vitro, which means enhancing the antigen uptake into APCs, a fluorescently labelled peptide was used as antigenic peptide. It was mixed with diverse concentrations of KLKLLLLLKLK (SEQ ID NO: 1) and other previously described “carrier-peptides” as indicated.
To compare the efficiency of peptide delivery of these diverse “carrier-peptides”, the amount of peptide uptake into APCs was monitored by incubating P388D1 cells (murine monocyte-macrophage antigen presenting cell line; purchased from ATCC (TIB-63)) for 1 h at 37° C. with a constant amount of fluorescein-tagged peptide alone or in combination with diverse “carrier-peptides” at concentrations indicated. Before analysing the cells by flow cytometry, the cells were washed extensively to remove free peptide. The relative amount of fluorescein-tagged peptide taken up by the cells was measured by flow cytometry.
The antigenic peptide used is an influenza-haemagglutinin-derived MHC class I (Kd) binding peptide (Buschle, M. (1997)). 2 μg of this fluorescein-tagged antigenic peptide (LFEAIEGFI) (SEQ ID NO:22) were mixed with 3 different amounts of each carrier peptide tested at concentrations representing 101.7, 50.9 and 5.09 nmol positive charges. […]

A further experiment relates to human neutrophils. To be noted: via cell surface calreticulin; cited from earlier work.
The test system of the next experiment is Staphylococcus aureus. The following applies: Staphylococcus aureus-infected mice; cited from earlier work.

Consider “KLKLLLLLKLK [synthetic antimicrobial peptide used as carrier peptide/adjuvant]”, for which the “IFN-γ-producing T cells specific for the carrier peptide itself, ELISpot” value in experiment [1] (ELISpot-assay) was “does not elicit IFN-γ-producing peptide-specific T cells”. For the same substance, the “IFN-γ-producing specific cells (TRP-2 peptide-specific), ELISpot” value in experiment [1] (FIG. 3, s.c. days 0, 28, 56, 100 μg TRP-2 peptide plus 100-504 μg carrier, 12 days after 3rd vaccination, versus peptide alone or with poly-L-arginine) is recorded as “many more IFN-γ-producing specific cells; also recorded: enhances the induction of peptide-specific T cell responses in vivo”. Further, the “fluorescence of TRANSloaded cells (uptake of fluorescein-tagged peptide LFEAIEGFI)” value in experiment [2] was “high and intense fluorescence”.
Turning to “KLKLLLLLKLK-NH2 [synthetic antimicrobial peptide, amidated form]”, the “superoxide anion (O2−) production” value with human neutrophils is “activated to produce the superoxide anion”. Moreover, the chemotherapeutic activity entry in the experiment on Staphylococcus aureus was “significant chemotherapeutic activity”.

Values taken from patent publication US8900564B2, “Vaccine composition comprising an antigen and a peptide having adjuvant properties” (Valneva Austria GmbH, priority 2000, dated 2014).
